Where two headings read alike, the source gives them in different places.
Assays:
AC = target: T1, AC (Homo sapiens, UniProt Q13510); assay: EC50 determination in primary fibroblast cells from Krabbe's disease patients; format: cell-based; set-up: expressed in transfected cells
T1 sequence (Q13510 22-395): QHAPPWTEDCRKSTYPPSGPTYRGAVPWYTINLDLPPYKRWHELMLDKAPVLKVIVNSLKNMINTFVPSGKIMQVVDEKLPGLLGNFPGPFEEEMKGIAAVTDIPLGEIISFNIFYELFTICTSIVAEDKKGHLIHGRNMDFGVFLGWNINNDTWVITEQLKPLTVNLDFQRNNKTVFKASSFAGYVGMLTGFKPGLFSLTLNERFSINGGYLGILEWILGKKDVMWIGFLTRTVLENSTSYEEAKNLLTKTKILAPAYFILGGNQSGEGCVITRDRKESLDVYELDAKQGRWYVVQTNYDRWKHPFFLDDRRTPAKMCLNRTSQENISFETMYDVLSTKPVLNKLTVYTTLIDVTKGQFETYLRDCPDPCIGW
Protocol: Cells were plated in a 6-well plate. After 24 h, cells were treated with 22m at different concentrations for 2 h. Next, cells were washed with PBS, and cell pellets were washed, collected, and stored at −80 °C. Finally, cell pellets were lysed, and hAC activity in cell lysates was analyzed using the same biochemical fluorogenic assay as described for compound IC50 determination. Using this methodology, EC50 was determined to be 0.41 ± 0.1 μM. The EC50 value is a mean of two independent experiments, each performed in two technical replicates.

[1] = In vitro mouse brain tissue protein binding (equilibrium dialysis); format: in vitro ADME
Protocol: Studies were performed by the DMPK Group at Shanghai ChemPartner Co., Ltd., using the equilibrium dialysis method. Values are the mean of two technical replicates.

GalSph (d18:1) = assay: Brain GalSph levels in Twitcher mice (Krabbe's disease model); format: in vivo, mouse; conditions: for reduction of GalSph (d18:1) levels in the brains: Twitcher mice; for GalSph(d18:1) change (Figure 8): brain
Protocol: (§1) 4L;C* mice (C57BL/6 J/129SvEV) were randomly assigned to three treatment groups (N = 4–8 with mixed males and females) and dosed once a day i.p. with 90 or 30 mg kg^–1 of 22m or vehicle. Treatment started at 5 days of age for a duration of 14 days. The application volume was set to 10 μL per gram of body weight, and dosage was adjusted accordingly. Animals of all groups were sacrificed 1 h after the last dose, and the brain tissues and plasma were collected. The left brain containing cortex, cerebella, thalamus, and brainstem was analyzed for SphL levels by MS. Data were analyzed using the Student t test. The right brain containing cortex, cerebella, thalamus, and brainstem and plasma were analyzed for drug levels of 22m. All mice were housed under pathogen-free conditions in the animal facility, and animal experiment was performed according to the IACUC approved protocol (2018-0056) at Cincinnati Children’s Hospital Research Foundation. Wild Type (WT) (GALC+/+) and Twitcher (Twi) (GALC–/−) mice were genotyped by PCR as previously described.[58] Twi mice were randomly assigned to three treatment groups (N = 3 males + N = 3 females for each group) and dosed once a day i.p. with 90 or 30 mg kg^–122m or vehicle for a duration of 20 days. Treatment started at 10 days of age. The application volume was set to 10 μL per gram of body weight, and dosage was adjusted accordingly. Two groups (N = 3 males + N = 3 females for each group) of WT controls treated with vehicle or high dose (90 mg kg^–1) of 22m were also included in the study. Animals of all groups were sacrificed 1 h after the last dose, and the brain tissues and plasma were collected. The left brain containing cortex, cerebella, thalamus, and brainstem was analyzed for SphL levels by MS. Data were analyzed using the Student t test. The right brain containing cortex, cerebella, thalamus, and brainstem and plasma were analyzed for drug levels of 22m. All animal work in this study was performed in accordance with approved animal protocols from the Animal Care and Use Committee at the University of Illinois at Chicago.

GCase = target: T2, GCase (Homo sapiens, UniProt P04062); assay: In vitro hGCase assay; format: biochemical; conditions: 1 and 10 μM
T2 construct: 5 nM purified human full-length GCase enzyme; made in house
T2 sequence (P04062 40-536): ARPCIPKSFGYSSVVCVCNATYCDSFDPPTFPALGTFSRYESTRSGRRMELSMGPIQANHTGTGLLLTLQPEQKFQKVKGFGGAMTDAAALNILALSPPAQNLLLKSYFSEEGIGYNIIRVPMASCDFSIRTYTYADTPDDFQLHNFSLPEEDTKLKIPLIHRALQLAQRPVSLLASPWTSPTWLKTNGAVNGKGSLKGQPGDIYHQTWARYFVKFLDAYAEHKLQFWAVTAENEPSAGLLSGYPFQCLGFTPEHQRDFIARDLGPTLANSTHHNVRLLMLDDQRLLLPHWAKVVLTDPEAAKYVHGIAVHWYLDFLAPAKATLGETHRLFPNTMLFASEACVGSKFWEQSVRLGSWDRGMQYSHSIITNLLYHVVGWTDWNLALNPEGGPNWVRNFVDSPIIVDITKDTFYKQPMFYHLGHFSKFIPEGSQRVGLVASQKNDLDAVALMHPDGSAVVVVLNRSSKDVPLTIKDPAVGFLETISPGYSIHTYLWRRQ
Protocol: hGCase activity measurement was conducted using the fluorogenic substrate 4-methylumbelliferyl-β-D-[…] hydrate (4-MUG, Merck) at 1 mM and 5 nM purified human full-length GCase enzyme and 50 nM of its natural activator SapC (both GCase and SapC were purified in house) in a buffer containing 50 mM citric acid, 174 mM K2HPO4, 15 μM phosphatidylserine, and 0.32 mM Triton X-100 at pH 4.7 in a final volume of 50 μL. The reaction mixtures were incubated for 15 min at rt and stopped by the addition of 150 μL of 1 M glycine at pH 12.5. The cleavage of 4-MUG was monitored by a plate reader at excitation/emission wavelengths of 365/440 nm. The average hGCase activity was calculated from two independent experiments, each performed in two technical replicates.

[2] = Plasma and brain concentrations in 4L;C* mice; format: in vivo, mouse; conditions: 1 h after last dose (day 14)
Protocol: as §1

Q: For CC(C)CNC(=O)n1c(=O)oc2cc(C3CCN(C)CC3)ccc21 [22m, N-Isobutyl-6-(1-methyl-4-piperidyl)-2-oxo-1,3-benzoxazole-3-carboxamide], which EC50 (AC; primary fibroblast cells from Krabbe's disease patients, 2 h incubation) is on record?
A: 410 ± 100 nM

Q: What about the EC50 (AC; primary fibroblast cells of Krabbe's patients, Figure S1) of the same compound?
A: 400 ± 100 nM

Q: What about the “Fb, u (%) brain fraction unbounded” value [1] of the same compound?
A: 0.70%

Q: What about the “reduction of GalSph (d18:1) levels in the brains” value (GalSph (d18:1); 30 mg kg^–1 i.p. once daily for 20 days) of the same compound?
A: 41%

Q: And the “reduction of GalSph (d18:1) levels in the brains” value (GalSph (d18:1); 90 mg kg^–1 i.p. once daily for 20 days)?
A: 72%

Q: And the “GalSph(d18:1) change (Figure 8)” value (GalSph (d18:1); Twi 30 mg/kg i.p.)?
A: -41%

Q: And the “GalSph(d18:1) change (Figure 8)” value (GalSph (d18:1); Twi 90 mg/kg i.p.)?
A: -72%

Q: What about the “effect on activity of GCase” value (GCase) of the same compound?
A: no effect

Q: And the concentration at 1 h ([2]; 4L;C* mice, 90 mg kg^–1 i.p., read-out: Cb, u (μM) brain unbounded concentration)?
A: 2.61 µM

Q: What about the concentration at 1 h ([2]; both sexes, 4L;C* (C57BL/6 J/129SvEV), mouse, brain, ip, 30 mg kg^–1, 4L;C* mice, 30 mg kg^–1 i.p., read-out: Cb (μM) brain concentration) of the same compound?
A: 110 µM

Q: What about the concentration at 1 h ([2]; both sexes, 4L;C* (C57BL/6 J/129SvEV), mouse, brain, ip, 30 mg kg^–1, 4L;C* mice, 30 mg kg^–1 i.p., read-out: Cb, u (μM) brain unbounded concentration) of the same compound?
A: 0.77 µM

Q: What about the concentration at 1 h ([2]; both sexes, 4L;C* (C57BL/6 J/129SvEV), mouse, brain, ip, 90 mg kg^–1, 4L;C* mice, 90 mg kg^–1 i.p., read-out: Cb (μM) brain concentration) of the same compound?
A: 373 µM

Q: What about the concentration at 1 h ([2]; both sexes, 4L;C* (C57BL/6 J/129SvEV), mouse, brain, ip, 90 mg kg^–1, 4L;C* mice, 90 mg kg^–1 i.p., read-out: Cb, u (μM) brain unbounded concentration) of the same compound?
A: 2.6 µM

Q: What about the concentration at 1 h ([2]; both sexes, 4L;C* (C57BL/6 J/129SvEV), mouse, plasma, ip, 30 mg kg^–1, 4L;C* mice, 30 mg kg^–1 i.p., read-out: Cp (μM) plasma concentration) of the same compound?
A: 3.08 µM

Q: What about the concentration at 1 h ([2]; both sexes, 4L;C* (C57BL/6 J/129SvEV), mouse, plasma, ip, 30 mg kg^–1, 4L;C* mice, 30 mg kg^–1 i.p., read-out: Cp,u (μM) plasma unbounded concentration) of the same compound?
A: 0.42 µM

Q: And the concentration at 1 h ([2]; both sexes, 4L;C* (C57BL/6 J/129SvEV), mouse, plasma, ip, 90 mg kg^–1, 4L;C* mice, 90 mg kg^–1 i.p., read-out: Cp (μM) plasma concentration)?
A: 16.8 µM

Q: And the concentration at 1 h ([2]; both sexes, 4L;C* (C57BL/6 J/129SvEV), mouse, plasma, ip, 90 mg kg^–1, 4L;C* mice, 90 mg kg^–1 i.p., read-out: Cp,u (μM) plasma unbounded concentration)?
A: 2.32 µM

— publication PMC7997574, “Lead Optimization of Benzoxazolone Carboxamides as Orally Bioavailable and CNS Penetrant Acid Ceramidase Inhibitors” (Journal of Medicinal Chemistry, 2020)
